According to the NIST ThermoML archive (doi:10.1016/j.jct.2019.04.006):
± gives the expanded uncertainty stated by the source.

Test: molar heat capacity at constant pressure
Settings: 101.33 kPa, Crystal, DSC

CSCCC(N)C(=O)O (racemic) [DL-2-amino-4-(methylthio)butanoic acid]
Settings | molar heat capacity at constant pressure [J/K/mol]
208.72 K | 145.39 ± 5.9
210.22 K | 145.59 ± 5.9
211.72 K | 146.57 ± 6
213.72 K | 147.97 ± 6
216.22 K | 150.38 ± 6.1
218.22 K | 152.14 ± 6.2
221.72 K | 155.91 ± 6.3
224.22 K | 157.49 ± 6.4
226.72 K | 159.11 ± 6.5
227.22 K | 159.42 ± 6.5
230.22 K | 161.3 ± 6.5
233.22 K | 162.93 ± 6.6
236.22 K | 164.63 ± 6.7
239.22 K | 166.6 ± 6.8
243.22 K | 168.79 ± 6.9
247.22 K | 170.83 ± 6.9
252.22 K | 173.41 ± 7
256.72 K | 176.16 ± 7.2
260.72 K | 178.94 ± 7.3
264.22 K | 181.37 ± 7.4
268.72 K | 184.35 ± 7.5
271.22 K | 184.84 ± 7.5
273.22 K | 187.3 ± 7.6
276.72 K | 190.45 ± 7.7
279.72 K | 192.56 ± 7.8
283.22 K | 194.93 ± 7.9
287.22 K | 196.84 ± 8
291.72 K | 199.53 ± 8.1
292.22 K | 199.85 ± 8.1
293.22 K | 200.43 ± 8.1
294.22 K | 201.59 ± 8.2
295.22 K | 202.47 ± 8.2
297.72 K | 205.07 ± 8.3
298.15 K | 205.16 ± 8.3
298.22 K | 205.65 ± 8.3
298.72 K | 205.99 ± 8.4
301.72 K | 208.47 ± 8.5
303.72 K | 209.85 ± 8.5
305.72 K | 211.52 ± 8.6
307.72 K | 212.85 ± 8.7
310.22 K | 214.89 ± 8.7
314.22 K | 218.21 ± 8.9
318.22 K | 222.26 ± 9
321.22 K | 225.76 ± 9.2

O=C(O)c1ccccc1 [benzoic acid]
Settings | molar heat capacity at constant pressure [J/K/mol]
208.72 K | 104.86 ± 4.3
210.22 K | 105.69 ± 4.3
211.72 K | 106.52 ± 4.3
213.72 K | 107.61 ± 4.4
216.22 K | 108.96 ± 4.4
218.22 K | 110.02 ± 4.5
221.72 K | 111.86 ± 4.5
224.22 K | 113.15 ± 4.6
226.72 K | 114.43 ± 4.7
227.22 K | 114.68 ± 4.7
230.22 K | 116.19 ± 4.7
233.22 K | 117.68 ± 4.8
236.22 K | 119.14 ± 4.8
239.22 K | 120.59 ± 4.9
243.22 K | 122.5 ± 5
247.22 K | 124.38 ± 5
252.22 K | 126.69 ± 5.2
256.72 K | 128.74 ± 5.2
260.72 K | 130.54 ± 5.3
264.22 K | 132.1 ± 5.4
268.72 K | 134.09 ± 5.5
271.22 K | 135.19 ± 5.5
273.22 K | 136.06 ± 5.5
276.72 K | 137.59 ± 5.6
279.72 K | 138.9 ± 5.6
283.22 K | 140.41 ± 5.7
287.22 K | 142.15 ± 5.8
291.72 K | 144.1 ± 5.8
292.22 K | 144.31 ± 5.9
293.22 K | 144.75 ± 5.9
294.22 K | 145.18 ± 5.9
295.22 K | 145.61 ± 5.9
297.72 K | 146.7 ± 6
298.15 K | 146.89 ± 6
298.22 K | 146.92 ± 6
298.72 K | 147.13 ± 6
301.72 K | 148.44 ± 6
303.72 K | 149.32 ± 6.1
305.72 K | 150.19 ± 6.1
307.72 K | 151.07 ± 6.1
310.22 K | 152.18 ± 6.2
314.22 K | 153.96 ± 6.2
318.22 K | 155.75 ± 6.3
321.22 K | 157.11 ± 6.4
